We go through eleven molecules from paper PMC11363738 (Journal of Enzyme Inhibition and Medicinal Chemistry, 2024).

The structures appear in SMILES notation.

For data set [1], the target named is T1, SARS-CoV-2 3CL^pro (Severe acute respiratory syndrome coronavirus 2, UniProt P0DTD1).
T1 construct: purchased Beyotime, China P0315M
Nature of the data set: SARS-CoV-2 3CLpro FRET activity assay (Beyotime inhibitor screening kit). In kind it is biochemical. The settings on record: for IC50: FRET assay, averages of three independent experiments; for inhibition at 1 µM: n = 3, read-out: rate of inhibiting SARS-CoV-2 3CL^pro.

Data set [2] is described as follows: Cytotoxicity against Vero E6 cells, CCK-8 assay (preventive model). Conditions: African green monkey.
In data set [3] the test system is SARS-CoV-2 Omicron virus BA.5. Nature of the data set: Antiviral activity in Vero E6 cells, preventive model (viral RNA by qRT-PCR). Format: cell-based. The settings on record: Severe acute respiratory syndrome coronavirus 2, Vero C1008; read-out: EC50 (concentration for 50% reduction in viral infectivity), preventive model. On the technique in general: Real-time PCR tracks product formation cycle by cycle.

The nature of data set [4]: Normal cytotoxicity test in Vero E6 cells, therapeutic model (Celltiter-Glo, CC plate). The settings on record: African green monkey, Vero E6 cells (uninfected). (In general: In ATP-based viability assays light output follows the ATP content of the culture.)
For data set [5], the system named is SARS-CoV-2 Omicron virus BA.5. Nature of the data set: microbe, parasite or virus in culture. Format: cell-based. The settings on record: for EC50: Severe acute respiratory syndrome coronavirus 2, Vero C1008, 96 h, ND = not detectable, inactive at 10 μM, mean ± SD, read-out: EC50, therapeutic model.
In data set [6] the test system is rats and mice. Details: method as in PMID 12776572. The settings on record: cited from earlier work.
In data set [7] the test system is SARS-CoV-2. On the set-up: method as in PMID 34131140. Conditions: read-out: intracellular antiviral activity EC50; cited from earlier work.
For data set [8], the system named is rats and mice. The settings on record: cited from earlier work.
The subject of data set [9] is rats and mice. Details: method as in earlier work. The settings on record: cited from earlier work.
A short description of data set [10]: in vitro. Conditions: African green monkey.
The nature of data set [11]: in vitro. Conditions: African green monkey. This is another data set of the same source.

As usually defined, the IC50 is the midpoint of a concentration-inhibition curve. `CCOC(=O)CCCOc1cc(O)c2c(=O)c(O)c(-c3cc(O)c(O)c(O)c3)oc2c1` [Compound 7, Ethyl 4-((3,5-dihydroxy-4-oxo-2–(3,4,5-trihydroxyphenyl)-4H-chromen-7-yl)oxy)butano-ate] returned an IC50 in [1] of 1.53 ± 0.14 µM.
`O=c1c(O)c(-c2cc(O)c(O)c(O)c2)oc2cc(O)cc(O)c12` [Compound 2, Myricetin]: the CC50 at 24 h in [2] is above 100 µM. For the same molecule, in data set [3], the EC50 was 12.2 ± 0.23 µM. Moreover, the CC50 at 4 days in [4] was above 100 µM. Moreover, the “inhibitory activity against Omicron virus, therapeutic model” value in data set [5] was “did not have significant inhibitory activity”.
As for `CCOC(=O)CCCCCOc1cc(O)c2c(=O)c(O)c(-c3cc(O)c(O)c(O)c3)oc2c1` [Compound 8, Ethyl 6-((3,5-dihydroxy-4-oxo-2–(3,4,5-trihydroxyphenyl)-4H-chromen-7-yl)oxy)hexane-ate], half-maximal inhibition in data set [1] (IC50) was put at 1.73 ± 0.11 µM.
`COC(=O)CCCOc1cc(O)c2c(=O)c(O)c(-c3cc(O)c(O)c(O)c3)oc2c1` [Compound 4, Methyl4-((3,5-dihydroxy-4-oxo-2–(3,4,5-trihydroxyphenyl)-4H-chromen-7-yl)oxy)butano-ate]: the IC50 in data set [1] came to 1.26 ± 0.09 µM.
For `CCOC(=O)CCCCCCOc1cc(O)c2c(=O)c(O)c(-c3cc(O)c(O)c(O)c3)oc2c1` [Compound 9, Ethyl 7-((3,5-dihydroxy-4-oxo-2–(3,4,5-trihydroxyphenyl)-4H-chromen-7-yl)oxy)heptano-ate], in data set [1], half-maximal inhibition (IC50) required 1.68 ± 0.19 µM.
For the molecule `O=C1c2c(O)cc(O)cc2O[C@H](c2cc(O)c(O)c(O)c2)[C@H]1O` [Compound 1, Dihydromyricetin], the “result in long-term toxicity tests” value in data set [6] is “negative”. The EC50 in [7] was 13.6 µM; in data set [3], 21.2 ± 0.62 µM. The same molecule registered a CC50 at 24 h in [2] above 100 µM. In data set [4], this molecule displayed a CC50 at 4 days above 100 µM. Moreover, the “result in acute oral toxicity tests” value in data set [8] was “negative”. Moreover, in data set [9], the “result in genotoxicity tests” value is given as “negative”. Moreover, the “inhibitory activity against Omicron virus, therapeutic model” value in data set [5] is on record as “did not have significant inhibitory activity”.
As for `COC(=O)CCCCCOc1cc(O)c2c(=O)c(O)c(-c3cc(O)c(O)c(O)c3)oc2c1` [Compound 5, Methyl 6-((3,5-dihydroxy-4-oxo-2–(3,4,5-trihydroxyphenyl)-4H-chromen-7-yl)oxy) hexano-ate], the CC50 in data set [10] and in [11] was above 100 µM throughout. The molecule further registered an IC50 in [1] of 1.69 ± 0.16 µM. Besides, the EC50 in [3] is 37.6 ± 2.05 µM.
Molecule `CCC(CC)COC(=O)[C@H](C)N[P@](=O)(OC[C@H]1O[C@@](C#N)(c2ccc3c(N)ncnn23)[C@H](O)[C@@H]1O)Oc1ccccc1` [Remdesivir] came in with a CC50 at 24 h in data set [2] above 100 µM. Also, the EC50 is 0.64 ± 0.12 µM in data set [3] and 0.91 ± 0.39 µM in data set [5]. The CC50 at 4 days in [4] amounted to 49.7 ± 0.13 µM.
Turning to `CCOC(=O)CCCCCCCOc1cc(O)c2c(=O)c(O)c(-c3cc(O)c(O)c(O)c3)oc2c1` [Compound 10, Ethyl 8-((3,5-dihydroxy-4-oxo-2–(3,4,5-trihydroxyphenyl)-4H-chromen-7-yl)oxy)octan-oate], the IC50 in data set [1] turned out to be 2.36 ± 0.13 µM. Besides, the EC50 in data set [3] was found to be 46.1 ± 4.67 µM; in [5], 11.5 ± 3.68 µM.
Turning to `CCOC(=O)COc1cc(O)c2c(=O)c(O)c(-c3cc(O)c(O)c(O)c3)oc2c1` [Compound 6, Ethyl 2-((3,5-dihydroxy-4-oxo-2–(3,4,5-trihydroxyphenyl)-4H-chromen-7-yl)oxy)acetate], in [1], the IC50 came to 0.95 ± 0.12 µM and the inhibition at 1 µM was above 50%.
With `COC(=O)COc1cc(O)c2c(=O)c(O)c(-c3cc(O)c(O)c(O)c3)oc2c1` [Compound 3, Methyl 2-((3,5-dihydroxy-4-oxo-2–(3,4,5-trihydroxyphenyl)-4H-chromen-7yl)oxy)acetate], the CC50 in [10] is above 100 µM. For the same molecule, in data set [1], inhibition was half-maximal at 0.72 ± 0.04 µM (IC50) and the inhibition at 1 µM is above 50%. The EC50 in data set [3] is 15.8 ± 0.92 µM. The molecule further registered a CC50 in data set [11] above 100 µM.
